Experimental data reported in patent US20260138976A1 (Hoffmann-La Roche Inc., priority 2022, published 2026).

Experiments:
[1] = molecular target: T1, DGKα (hDGKalpha(1-735)-N-His) (Homo sapiens, UniProt P23743); experiment: In vitro DGK inhibition assay, DGKalpha ADP Glo (in house); type: biochemical; settings: 4 nM DGKα, 25 μM ATP, 125 uM DLG in liposomes, 1 hour reaction
T1 construct: hDGKalpha(1-735)-N-His; His (N); made in house; host or cells: Sf21 insect cells (baculovirus)
Procedure, shortened: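 ADP-Glo luminescence measured ADP formed over 1 h by Sf21-expressed full-length human enzymes: DGKα at 4 nM with 25 µM ATP, DGKζ at 2 nM with 50 µM ATP, both on 125 µM DLG in PS/PC liposomes. Dose–response used 11 threefold dilutions at 2% final DMSO.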

primary human T-cells = experiment: Proliferation assay (5 days, CellTiter-Glo, CD3-stimulated T-cells); type: cell-based; settings: for Emax proliferation (% activation): CD3 condition, normalised to DMSO (neutral) and 20 μM reference compound A1 = 100%; for EC50: Homo sapiens, T-cell, 120 h, CD3-stimulated primary human T-cells, 5 days, CellTiter-Glo, fitted sigmoidal curve, read-out: Tcell Proliferation CD3 EC50
Procedure, shortened: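 Proliferation read-out: ATP luminescence (CellTiter-Glo 2.0) at day 5 in expanded primary human T-cells on CD3 antibody-coated plates, with PBS-only plates as a counter screen. Compounds in 5–6 pt series (factor 3.333, top 20 or 10 μM final). Values are normalized to DMSO (neutral) and 20 μM reference A1 (100%), from sigmoidal fits.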

T1 sequence (P23743 whole entry): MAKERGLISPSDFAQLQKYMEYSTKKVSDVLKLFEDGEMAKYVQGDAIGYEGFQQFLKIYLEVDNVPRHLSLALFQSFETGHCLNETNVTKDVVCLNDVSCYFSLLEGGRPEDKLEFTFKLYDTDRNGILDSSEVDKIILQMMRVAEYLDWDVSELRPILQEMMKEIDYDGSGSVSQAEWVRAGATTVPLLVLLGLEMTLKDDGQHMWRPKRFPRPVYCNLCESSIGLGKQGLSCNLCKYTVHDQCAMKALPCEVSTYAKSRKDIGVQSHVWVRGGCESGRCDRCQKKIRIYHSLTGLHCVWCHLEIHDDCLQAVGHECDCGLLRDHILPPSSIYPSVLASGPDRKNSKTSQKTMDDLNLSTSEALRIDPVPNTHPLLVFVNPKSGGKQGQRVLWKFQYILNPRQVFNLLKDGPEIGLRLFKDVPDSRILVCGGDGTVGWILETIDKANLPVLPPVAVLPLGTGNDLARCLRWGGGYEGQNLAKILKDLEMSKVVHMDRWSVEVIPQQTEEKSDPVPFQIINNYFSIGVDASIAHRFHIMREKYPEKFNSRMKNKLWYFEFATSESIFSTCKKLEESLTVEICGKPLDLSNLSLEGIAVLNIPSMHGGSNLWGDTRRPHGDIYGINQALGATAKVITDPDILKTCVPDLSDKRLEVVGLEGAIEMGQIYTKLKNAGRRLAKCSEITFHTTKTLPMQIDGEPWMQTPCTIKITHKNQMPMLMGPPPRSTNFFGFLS

SMILES | IC50 [1] [nM] | Emax proliferation (% activation) (primary human T-cells) | EC50 (primary human T-cells) [nM]
CC1(c2nnc(-c3ccc4c(c3)N(Cc3ccc(-c5noc(C(F)(F)F)n5)cc3)C(=O)[C@@H](N)CS4(=O)=O)o2)COC1 [Example 149, (3R)-3-amino-7-[5-(3-methyloxetan-3-yl)-1,3,4-oxadiazol-2-yl]-1,1-dioxo-5-[[4-[5-(trifluoromethyl)-1,2,4-oxadiazol-3-yl]phenyl]methyl]-2,3-dihydro-1λ^6,5-benzothiazepin-4-one] | > 62500 | 118 | 1210
COC(=O)N1CC2CC(c3nnc(-c4ccc5c(c4)N(Cc4ccc(-c6ccc(C(F)(F)F)cn6)cc4)C(=O)[C@@H](N)CS5(=O)=O)o3)(C2)C1 [Example 159, methyl 1-[5-[(3R)-3-amino-1,1,4-trioxo-5-[[4-[5-(trifluoromethyl)-2-pyridyl]phenyl]methyl]-2,3-dihydro-1λ^6,5-benzothiazepin-7-yl]-1,3,4-oxadiazol-2-yl]-3-azabicyclo[3.1.1]heptane-3-carboxylate] | 1950 | 146 | 152
N[C@H]1CS(=O)(=O)c2ccc(-c3nnc(N4CCC(F)(F)CC4)o3)cc2N(Cc2ccc(-c3nc(C(F)(F)F)no3)cc2)C1=O [Example 161, (3R)-3-amino-7-[5-(4,4-difluoro-1-piperidyl)-1,3,4-oxadiazol-2-yl]-1,1-dioxo-5-[[4-[3-(trifluoromethyl)-1,2,4-oxadiazol-5-yl]phenyl]methyl]-2,3-dihydro-1λ^6,5-benzothiazepin-4-one] | > 62500 | 178 | 327
N#CC1CN(c2nnc(-c3ccc4c(c3)N(Cc3ccc(-c5noc(C(F)(F)F)n5)cc3)C(=O)[C@@H](N)CS4(=O)=O)o2)CCO1 (stereo partly drawn) [Example 163, 4-[5-[(3R)-3-amino-1,1,4-trioxo-5-[[4-[5-(trifluoromethyl)-1,2,4-oxadiazol-3-yl]phenyl]methyl]-2,3-dihydro-1λ^6,5-benzothiazepin-7-yl]-1,3,4-oxadiazol-2-yl]morpholine-2-carbonitrile] | > 62500 | 106 | 6440
COCC1CN(c2nnc(-c3ccc4c(c3)N(Cc3ccc(-c5noc(C(F)(F)F)n5)cc3)C(=O)[C@@H](N)CS4(=O)=O)o2)CCO1 (stereo partly drawn) [Example 164, (3R)-3-amino-7-[5-[2-(methoxymethyl)morpholin-4-yl]-1,3,4-oxadiazol-2-yl]-1,1-dioxo-5-[[4-[5-(trifluoromethyl)-1,2,4-oxadiazol-3-yl]phenyl]methyl]-2,3-dihydro-1λ^6,5-benzothiazepin-4-one] | > 62500 | 86 | 390
CC(C)(c1nnc(-c2ccc3c(c2)N(Cc2ccc(-c4noc(C5CC5)n4)cc2)C(=O)[C@@H](N)CS3(=O)=O)o1)C(F)(F)F [Example 167, (3R)-3-amino-5-[[4-(5-cyclopropyl-1,2,4-oxadiazol-3-yl)phenyl]methyl]-1,1-dioxo-7-[5-(2,2,2-trifluoro-1,1-dimethyl-ethyl)-1,3,4-oxadiazol-2-yl]-2,3-dihydro-1λ^6,5-benzothiazepin-4-one] | > 62500 | 186 | 629
CCC(O)(c1nnc(-c2ccc3c(c2)N(Cc2ccc(-c4noc(C5CC5)n4)cc2)C(=O)[C@@H](N)CS3(=O)=O)o1)C(F)(F)F (stereo partly drawn) [Example 169] | > 19800 | 106 | 833
CCN1CC(c2nnc(-c3ccc4c(c3)N(Cc3ccc(-c5noc(C(C)(C)C)n5)cc3)C(=O)[C@@H](N)CS4(=O)=O)o2)CC(F)(F)C1 (stereo partly drawn) [Example 181, (3R)-3-amino-5-[[4-(5-tert-butyl-1,2,4-oxadiazol-3-yl)phenyl]methyl]-7-[5-(1-ethyl-5,5-difluoro-3-piperidyl)-1,3,4-oxadiazol-2-yl]-1,1-dioxo-2,3-dihydro-1λ^6,5-benzothiazepin-4-one] | > 62500 | 105 | 718
COCCN1CC(c2nnc(-c3ccc4c(c3)N(Cc3ccc(-c5noc(C(F)(F)F)n5)cc3)C(=O)[C@@H](N)CS4(=O)=O)o2)CC(F)(F)C1 (stereo partly drawn) [Example 182, (3R)-3-amino-7-[5-[5,5-difluoro-1-(2-methoxyethyl)-3-piperidyl]-1,3,4-oxadiazol-2-yl]-1,1-dioxo-5-[[4-[5-(trifluoromethyl)-1,2,4-oxadiazol-3-yl]phenyl]methyl]-2,3-dihydro-1λ^6,5-benzothiazepin-4-one] | > 62500 | 175 | 1270
COCCN1CC(c2nnc(-c3ccc4c(c3)N(Cc3ccc(-c5ccc(OC)cc5)cc3)C(=O)[C@@H](N)CS4(=O)=O)o2)CC(F)(F)C1 (stereo partly drawn) [Example 183, (3R)-3-amino-7-[5-[5,5-difluoro-1-(2-methoxyethyl)-3-piperidyl]-1,3,4-oxadiazol-2-yl]-5-[[4-(4-methoxyphenyl)phenyl]methyl]-1,1-dioxo-2,3-dihydro-1λ^6,5-benzothiazepin-4-one] | > 62500 | 156 | 1680

Now from value to molecule, other results behind:

IC50 [1] [nM] | SMILES | Emax proliferation (% activation) (primary human T-cells) | EC50 (primary human T-cells) [nM]
> 6250 | CC(C)(C#N)c1nnc(-c2ccc3c(c2)N(Cc2ccc(-n4ccc(C(F)(F)F)n4)cc2)C(=O)[C@@H](N)CS3(=O)=O)o1 [Example 121, 2-[5-[(3R)-3-amino-1,1,4-trioxo-5-[[4-[3-(trifluoromethyl)pyrazol-1-yl]phenyl]methyl]-2,3-dihydro-1λ^6,5-benzothiazepin-7-yl]-1,3,4-oxadiazol-2-yl]-2-methyl-propanenitrile] | 160 | 1090
2400 | CC(C)(C#N)c1nnc(-c2ccc3c(c2)N(Cc2ccc(-c4ccc(OC(F)(F)F)cn4)cc2)C(=O)[C@@H](N)CS3(=O)=O)o1 [Example 124] | 153 | 114
> 19800 | CC1(c2nnc(-c3ccc4c(c3)N(Cc3ccc(-c5ccc(C(F)(F)F)cn5)cc3)C(=O)[C@@H](N)CS4(=O)=O)o2)COC1 [Example 150, (3R)-3-amino-7-[5-(3-methyloxetan-3-yl)-1,3,4-oxadiazol-2-yl]-1,1-dioxo-5-[[4-[5-(trifluoromethyl)-2-pyridyl]phenyl]methyl]-2,3-dihydro-1λ^6,5-benzothiazepin-4-one] | 79 | 656
41400 | C[C@@](N)(c1nnc(-c2ccc3c(c2)N(Cc2ccc(-n4ccc(C(F)(F)F)n4)cc2)C(=O)[C@@H](N)CS3(=O)=O)o1)C(F)(F)F [Example 157, (3R)-3-amino-7-[5-[(1R)-1-amino-2,2,2-trifluoro-1-methyl-ethyl]-1,3,4-oxadiazol-2-yl]-1,1-dioxo-5-[[4-[3-(trifluoromethyl)pyrazol-1-yl]phenyl]methyl]-2,3-dihydro-1λ^6,5-benzothiazepin-4-one] | 130 | 600
3030 | CC(C)(c1nnc(-c2ccc3c(c2)N(Cc2ccc(-c4noc(C(F)(F)F)n4)cc2)C(=O)[C@@H](N)CS3(=O)=O)o1)C(F)(F)F [Example 166] | 164 | 75.9
